Experimental data reported in patent US20240294541A1, “COMPOUNDS CONSTITUTING C20-MODIFIED SALINOMYCIN DERIVATIVES, A METHOD FOR OBTAINING THE SAME, A COMPOSITION CONTAINING THE SAME AND A USE OF SAID COMPOUNDS” (FILECLO SPOLKA Z OGRANICZONA ODPOWIEDZIALNOSCIA, priority 2021, published 2024).
Like-named read-outs stand apart in the source and are kept apart here.

What was measured:
Type in all cases: cell-based
[1] = tested on: NCI-H23 (human lung cancer); experiment: In vitro cytotoxicity, SRB assay, NCI-H23; settings: for IC50: Homo sapiens; for NCI-H23 SI: selectivity coefficient vs normal BALB/3T3 cells
[2] = tested on: PFSK-1 (malignant primitive neuroectodermal tumour); experiment: In vitro cytotoxicity, SRB assay, PFSK-1; settings: for IC50: Homo sapiens; for PFSK-1 SI: selectivity coefficient vs normal BALB/3T3 cells
[3] = tested on: A2780 (human ovarian cancer); experiment: In vitro cytotoxicity, SRB assay, A2780; settings: for IC50: Homo sapiens; for A2780 SI: selectivity coefficient vs normal BALB/3T3 cells
[4] = tested on: A2780Cis (cisplatin-resistant human ovarian cancer); experiment: In vitro cytotoxicity, SRB assay, A2780Cis; settings: for IC50: Homo sapiens, A2780cis, 72 h, read-out: A2780Cis IC50 (nM)
A375 (human melanoma) = experiment: In vitro cytotoxicity, SRB assay, A375; settings: for IC50: Homo sapiens; for A375 SI: selectivity coefficient vs normal BALB/3T3 cells
Hs294T (human melanoma) = experiment: cells; settings: for IC50: Hs 294T; for Hs294T SI: selectivity coefficient vs normal BALB/3T3 cells
[5] = tested on: PLC/PRF/5 (human liver cancer); experiment: cells; settings: for PLC/PRF/5 SI: selectivity coefficient vs normal BALB/3T3 cells
[6] = tested on: SNU-16 (human gastric cancer); experiment: cells; settings: for SNU-16 SI: selectivity coefficient vs normal BALB/3T3 cells
[7] = tested on: KG-1 (human acute myeloid leukaemia); experiment: In vitro cytotoxicity, MTT assay, KG-1; settings: for IC50: Homo sapiens, 72 h with compound, MTT, n/a = non-active compound; for KG-1 SI: selectivity coefficient vs normal BALB/3T3 cells
[8] = tested on: MIA PaCa-2 (human pancreatic cancer); experiment: cells; settings: for MIA PaCa-2 SI: selectivity coefficient vs normal BALB/3T3 cells
[9] = tested on: BALB/3T3 (normal mouse fibroblasts); experiment: In vitro cytotoxicity, SRB assay, normal BALB/3T3 fibroblasts; settings: Mus musculus, BALB/3T3; normal cells; 72 h with compound, SRB; n/a = non-active compound; read-out: BALB/3T3 IC50
[10] = tested on: NCI-H358 (human lung cancer); experiment: cells; settings: Table 4; NCI-H358 human lung cancer cells; read-out: IC50 (nM) NCI-H358
[11] = Homo sapiens, 72 h with compound, SRB, n/a = non-active compound, read-out: Hs294T IC50
[12] = Homo sapiens, PLC-PRF-5, 72 h with compound, SRB, n/a = non-active compound, read-out: PLC/PRF/5 IC50
[13] = Homo sapiens, SNU-16, 72 h with compound, MTT, n/a = non-active compound, read-out: SNU-16 IC50
[14] = Homo sapiens, MIA PaCa-2, 72 h with compound, SRB, n/a = non-active compound, read-out: MIA PaCa-2 IC50
[15] = NCI-H23, 72 h with compound, SRB, n/a = non-active compound, read-out: NCI-H23 IC50
[16] = PFSK-1, 72 h with compound, SRB, n/a = non-active compound, read-out: PFSK-1 IC50
[17] = A2780, 72 h with compound, SRB, n/a = non-active compound, read-out: A2780 IC50
[18] = A-375, 72 h with compound, SRB, n/a = non-active compound, read-out: A375 IC50
[19] = Table 4, Hs294T human melanoma cells, read-out: IC50 (nM) Hs294T
[20] = Table 4, PLC/PRF/5 human liver cancer cells, read-out: IC50 (nM) PLC/PRF/5
[21] = Table 4, SNU-16 human gastric cancer cells, read-out: IC50 (nM) SNU-16
[22] = Table 4, MIA PaCa-2 human pancreatic cancer cells, read-out: IC50 (nM) MIA PaCa-2

Row | Structure (SMILES) | NCI-H23 SI [1] | PFSK-1 SI [2] | A2780 SI [3] | A2780Cis RI [4] | A2780Cis SI [4] | IC50 [4] [nM] | A375 SI (A375 (human melanoma)) | IC50 (Hs294T (human melanoma); [11]) [nM] | Hs294T SI (Hs294T (human melanoma)) | IC50 [5, 12] [nM] | PLC/PRF/5 SI [5] | IC50 [6, 13] [nM] | SNU-16 SI [6] | IC50 [7] [µM] | KG-1 SI [7] | IC50 [8, 14] [nM] | MIA PaCa-2 SI [8] | IC50 [9] [µM] | IC50 [1, 15] [nM] | IC50 [2, 16] [nM] | further results
1 | CC[C@@H](C(=O)[C@@H](C)[C@@H](O)[C@H](C)[C@@H]1O[C@@H]([C@@H](CC)C(=O)O)CC[C@@H]1C)[C@H]1O[C@]2(C=C[C@@H](NC(=S)Nc3cc(Cl)cc(Cl)c3)[C@]3(CC[C@@](C)([C@H]4CC[C@](O)(CC)[C@H](C)O4)O3)O2)[C@H](C)C[C@@H]1C [FLC-00380-1] | 36.6 | 31.6 | 85.7 | 0.2 | 483.3 | 0.4 | 1.0 | 178 | 1.1 | 19.9 | 9.6 | 6.6 | 28.9 | 0.00644 | 29.6 | 48.2 | 4.0 | 0.191 |  |  | IC50 ([1]; NCI-H23, 72 h, read-out: NCI-H23 IC50 (nM)): 5.22 nM; IC50 ([2]; PFSK-1, 72 h, read-out: PFSK-1 IC50 (nM)): 6.05 nM; IC50 ([3]; A2780, 72 h, read-out: A2780 IC50 (nM)): 2.23 nM; IC50 (A375 (human melanoma); A-375, 72 h, read-out: A375 IC50 (nM)): 195 nM
2 | CC[C@@H](C(=O)[C@@H](C)[C@@H](O)[C@H](C)[C@@H]1O[C@@H]([C@@H](CC)C(=O)O)CC[C@@H]1C)[C@H]1O[C@]2(C=C[C@@H](NC(=O)Nc3ccccc3C(F)(F)F)[C@]3(CC[C@@](C)([C@H]4CC[C@](O)(CC)[C@H](C)O4)O3)O2)[C@H](C)C[C@@H]1C [FLC-00381-1] | 3.4 | 3.2 | 11.9 | 0.5 | 21.7 | 7.34 | 0.8 | 138 | 1.2 | 62.4 | 2.5 | 63.8 | 2.5 | 0.0364 | 4.4 | 69.6 | 2.3 | 0.159 | 46.3 | 50.4 | IC50 [3, 17]: 13.4 nM; IC50 (A375 (human melanoma); [18]): 189 nM
3 | CC[C@@H](C(=O)[C@@H](C)[C@@H](O)[C@H](C)[C@@H]1O[C@@H]([C@@H](CC)C(=O)O)CC[C@@H]1C)[C@H]1O[C@]2(C=C[C@@H](NC(=S)Nc3ccc(C)cc3)[C@]3(CC[C@@](C)([C@H]4CC[C@](O)(CC)[C@H](C)O4)O3)O2)[C@H](C)C[C@@H]1C [FLC-00382-1] | 13.2 | 13.8 | 61.4 | 0.4 | 157.5 | 0.33 | 1.2 | 61.1 | 0.8 | 5.15 | 10.0 | 5.15 | 10.0 | 0.00984 | 5.2 | 36.5 | 1.4 | 0.0516 | 3.92 | 3.75 | IC50 [3, 17]: 0.84 nM; IC50 (A375 (human melanoma); [18]): 44.2 nM
4 | CC[C@@H](C(=O)[C@@H](C)[C@@H](O)[C@H](C)[C@@H]1O[C@@H]([C@@H](CC)C(=O)O)CC[C@@H]1C)[C@H]1O[C@]2(C=C[C@@H](NC(=O)NCc3ccc(F)cc3)[C@]3(CC[C@@](C)([C@H]4CC[C@](O)(CC)[C@H](C)O4)O3)O2)[C@H](C)C[C@@H]1C [FLC-00383-1] | 7.0 | 6.7 | 27.2 | 0.7 | 39.0 | 4.45 | 0.8 | 244 | 0.7 | 3.35 | 51.7 | 20.3 | 8.6 | 0.0306 | 5.7 | 47.7 | 3.6 | 0.173 | 24.6 | 26 | IC50 [3, 17]: 6.38 nM; IC50 (A375 (human melanoma); [18]): 205 nM
5 | CC[C@@H](C(=O)[C@@H](C)[C@@H](O)[C@H](C)[C@@H]1O[C@@H]([C@@H](CC)C(=O)O)CC[C@@H]1C)[C@H]1O[C@]2(C=C[C@@H](NC(=O)NC3CCCCC3)[C@]3(CC[C@@](C)([C@H]4CC[C@](O)(CC)[C@H](C)O4)O3)O2)[C@H](C)C[C@@H]1C [FLC-00384-1] | 3.8 | 10.5 | 25.9 | 0.3 | 80.0 | 1.31 | 0.9 | 141 | 0.7 | 28.2 | 3.7 | 21.1 | 5.0 | 0.0197 | 5.3 | 62.6 | 1.7 | 0.105 | 27.7 | 10 | IC50 [3, 17]: 4.04 nM; IC50 (A375 (human melanoma); [18]): 120 nM
6 | CC[C@@H](C(=O)[C@@H](C)[C@@H](O)[C@H](C)[C@@H]1O[C@@H]([C@@H](CC)C(=O)O)CC[C@@H]1C)[C@H]1O[C@]2(C=C[C@@H](NC(=S)Nc3cccc(C(F)(F)F)c3)[C@]3(CC[C@@](C)([C@H]4CC[C@](O)(CC)[C@H](C)O4)O3)O2)[C@H](C)C[C@@H]1C [FLC-00386-1] |  |  |  |  |  |  |  |  |  |  |  |  |  |  |  |  |  |  |  |  | IC50 (Hs294T (human melanoma); [19]): 147 nM; IC50 [5, 20]: 10.2 nM; IC50 [6, 21]: 10.1 nM; IC50 [8, 22]: 11.3 nM; IC50 [10]: 51.3 nM
7 | CC[C@@H](C(=O)[C@@H](C)[C@@H](O)[C@H](C)[C@@H]1O[C@@H]([C@@H](CC)C(=O)O)CC[C@@H]1C)[C@H]1O[C@]2(C=C[C@@H](NC(=S)NC(C)C)[C@]3(CC[C@@](C)([C@H]4CC[C@](O)(CC)[C@H](C)O4)O3)O2)[C@H](C)C[C@@H]1C [FLC-00387-1] |  |  |  |  |  |  |  |  |  |  |  |  |  |  |  |  |  |  |  |  | IC50 (Hs294T (human melanoma); [19]): 162 nM; IC50 [5, 20]: 0.7 nM; IC50 [6, 21]: 10.2 nM; IC50 [8, 22]: 9.71 nM; IC50 [10]: 44.4 nM
8 | C=CCOC(=O)N[C@@H]1C=C[C@]2(O[C@H]([C@@H](CC)C(=O)[C@@H](C)[C@@H](O)[C@H](C)[C@@H]3O[C@@H]([C@@H](CC)C(=O)O)CC[C@@H]3C)[C@@H](C)C[C@H]2C)O[C@@]12CC[C@@](C)([C@H]1CC[C@](O)(CC)[C@H](C)O1)O2 [FLC-00425-1•Na] |  |  |  |  |  |  |  |  |  |  |  |  |  |  |  |  |  |  |  |  | IC50 (Hs294T (human melanoma); [19]): 362 nM; IC50 [5, 20]: 26.5 nM; IC50 [6, 21]: 420 nM; IC50 [8, 22]: 269 nM; IC50 [10]: 234 nM
